Measured values: patent US11731965B2, “Tetrahydroprotoberberine compound, preparation method therefor and uses thereof, and pharmaceutical composition” (SHANGHAI INSTITUTE OF MATERIA MEDICA, CHINESE ACADEMY OF …, priority 2017, dated 2023)
Counter-ions that a name gives are not always drawn.

How the values were obtained:
[1] = tested on: PCP-induced high spontaneous activity in mice; assay: PCP-induced high spontaneous activity test in mice; assay type: in vivo, Male ICR mice; conditions: dose by gavage that significantly reduces PCP (7 mg/kg ip) induced high spontaneous activity of mice vs model group
Procedure: PCP (phencylidine) was dissolved in physiological saline to prepare a 7 mg/kg solution. The test compound was formulated with a 0.5% CMC-Na solution to a solution with suitable concentration, ready-to-use. Male ICR mice were 18-22 g. Mice were randomly divided into a solvent control group, a model control group, a positive control group, and each test drug group during the test. There were 8 mice in each group. Mice in each group were given each test drug by gavage. 45 minutes after the test drug was administered, mice were injected with a PCP (7 mg/kg) solution intraperitoneally. The spontaneous, open field video analysis system was used to record the mouse movement trajectory within 45 min after administration of test drug or saline, and then the mouse movement trajectory within 75 min after PCP administration. Spontaneous, open field video analysis system was used to analyze the mouse's movement trajectory, and the total distance of the movement of the mice in each group was counted. The result was expressed as mean±SD. Results were analyzed by one-way analysis of variance.

[2] = target: T1, human recombinant D1 receptor (Homo sapiens, UniProt P21728); assay: D1 antagonistic activity test (LANCE cAMP, antagonism of dopamine-induced cAMP production in HEK293 cells); assay type: cell-based; conditions: HEK293 cells expressing human recombinant D1 receptor; test concentration 0.1 nM to 10000 nM; read-out: D1 Antagonistic Activity (IC50, nmol/L)
T1 construct: expressed in transfected cells; host or cells: HEK293
Procedure: • 1) D1 antagonistic activity test
The D1 antagonism of the compound was evaluated by testing the antagonistic action of the compounds against dopamine on the induction of cAMP production in HEK293 cells. The cAMP concentration test was performed according to the method described in the kit instructions. The test concentration of the compound was 0.1 nM to 10000 nM. SCH23390 was used as a positive control. The IC50 was calculated by Excelfit software.

[3] = target: T2, human recombinant D2 receptor (Homo sapiens, UniProt P14416); assay: D2 antagonistic activity test (LANCE cAMP, antagonism of dopamine inhibition of cAMP production in HEK293 cells); assay type: cell-based; conditions: HEK293 cells expressing human recombinant D2 receptor; test concentration 0.1 nM to 10000 nM; read-out: D2 Antagonistic Activity (IC50, nmol/L)
T2 construct: expressed in transfected cells; host or cells: HEK293
Procedure: LANCE™ cAMP 384 Kit (PerkinElmer, USA) was used to test the antagonism of the compound against the D1 receptor using the HEK293 cells expressing human recombinant D1 receptor. The D1 antagonism of the compound was evaluated by testing the antagonistic action of the compounds against dopamine on the induction of cAMP production in HEK293 cells. The cAMP concentration test was performed according to the method described in the kit instructions. The test concentration of the compound was 0.1 nM to 10000 nM. SCH23390 was used as a positive control. The IC50 was calculated by Excelfit software. The test results of some compounds were shown in Table 1. • 2) D2 antagonistic activity test LANCE™ cAMP 384 Kit (PerkinElmer, USA) was used to test the antagonism of the compound against the D2 receptor using the HEK293 cells expressing human recombinant D2 receptor. The D2 antagonism of the compound was evaluated by testing the antagonistic action of the compounds against dopamine on the inhibition of cAMP production in HEK293 cells. The cAMP concentration test was performed according to the method described in the kit instructions. The test concentration of the compound was 0.1 nM to 10000 nM. Risperidone was used as a positive control. The IC50 was calculated by Excelfit software. The test results of some compounds were shown in Table 1 (ND means the test was not performed).

[4] = target: T3, human recombinant 5-HT1A receptor (Homo sapiens, UniProt P08908); assay: 5-HT1A agonistic activity test (LANCE cAMP, inhibition of cAMP production in HEK293 cells); assay type: cell-based; conditions: HEK293 cells expressing human recombinant 5-HT1A receptor; test concentration 0.1 nM to 10000 nM; read-out: 5-HT1A Agonistic Activity (EC50, nmol/L)
T3 construct: expressed in transfected cells; host or cells: HEK293
T3 sequence (P08908 1-422): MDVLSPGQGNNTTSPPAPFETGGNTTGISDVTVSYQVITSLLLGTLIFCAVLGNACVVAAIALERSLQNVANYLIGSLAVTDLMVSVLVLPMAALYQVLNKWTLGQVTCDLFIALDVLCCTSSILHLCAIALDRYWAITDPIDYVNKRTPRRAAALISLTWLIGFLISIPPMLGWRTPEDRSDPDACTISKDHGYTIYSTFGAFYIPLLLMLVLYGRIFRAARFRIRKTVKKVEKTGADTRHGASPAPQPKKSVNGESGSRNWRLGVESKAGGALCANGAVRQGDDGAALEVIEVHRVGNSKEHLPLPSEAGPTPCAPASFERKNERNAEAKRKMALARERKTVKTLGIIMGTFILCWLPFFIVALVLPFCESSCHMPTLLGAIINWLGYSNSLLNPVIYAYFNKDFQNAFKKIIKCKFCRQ
Procedure: • 3) 5-HT1A agonistic activity test
LANCE™ cAMP 384 Kit (PerkinElmer, USA) was used to test the agonistic effect of the compound on 5-HT1A receptor using the HEK293 cells expressing human recombinant 5-HT1A receptor. The 5-HT1A agonistic effect of the compound was evaluated by testing the inhibitory effect of the compound on cAMP production in HEK293 cells. The cAMP concentration test was performed according to the method described in the kit instructions. The test concentration of the compound was 0.1 nM to 10000 nM. 8-OH-DPAT was used as a positive control. The EC50 was calculated by Excelfit software.

T2 sequence (P14416 whole entry): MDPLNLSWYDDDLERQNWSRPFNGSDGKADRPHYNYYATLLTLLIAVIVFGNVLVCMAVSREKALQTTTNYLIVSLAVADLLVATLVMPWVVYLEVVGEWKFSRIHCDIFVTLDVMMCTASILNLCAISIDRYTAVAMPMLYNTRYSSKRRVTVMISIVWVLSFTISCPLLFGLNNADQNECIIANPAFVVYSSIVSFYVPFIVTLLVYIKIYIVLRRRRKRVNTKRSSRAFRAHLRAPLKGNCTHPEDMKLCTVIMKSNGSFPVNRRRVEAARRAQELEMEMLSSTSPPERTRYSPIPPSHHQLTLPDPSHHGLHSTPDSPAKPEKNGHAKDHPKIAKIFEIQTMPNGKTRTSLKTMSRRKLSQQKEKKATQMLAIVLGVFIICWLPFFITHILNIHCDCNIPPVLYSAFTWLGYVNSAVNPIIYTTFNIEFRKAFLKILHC
T1 sequence (P21728 whole entry): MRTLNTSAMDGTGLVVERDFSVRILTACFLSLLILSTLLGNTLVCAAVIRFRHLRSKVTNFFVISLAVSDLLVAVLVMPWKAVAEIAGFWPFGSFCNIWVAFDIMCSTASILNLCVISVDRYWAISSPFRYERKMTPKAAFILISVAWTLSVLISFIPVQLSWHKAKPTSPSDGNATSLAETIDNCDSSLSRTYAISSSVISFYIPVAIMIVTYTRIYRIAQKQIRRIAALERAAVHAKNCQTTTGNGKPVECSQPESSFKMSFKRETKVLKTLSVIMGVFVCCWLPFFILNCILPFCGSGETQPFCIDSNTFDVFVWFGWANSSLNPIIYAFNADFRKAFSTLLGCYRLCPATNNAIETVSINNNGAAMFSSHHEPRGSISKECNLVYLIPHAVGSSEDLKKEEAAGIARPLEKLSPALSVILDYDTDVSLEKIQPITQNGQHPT

| IC50 [2] | IC50 [3] | EC50 [4] | SMILES | Effective Dose [1] |
| --- | --- | --- | --- | --- |
|  | 280 nmol/L |  | CCCc1cc2c(cc1OC)CCN1Cc3c(ccc(OC)c3OC)C[C@@H]21 [Example 2, (S)-2-n-propyl-3,9,10-trimethoxy-6,8,13,13a-tetrahydro-5H-dibenzo [a,g] quinolizine] | 20 mg/kg |
| 61 nmol/L | 770 nmol/L |  | COc1cc2c(cc1CO)[C@@H]1Cc3ccc(OC)c(OC)c3CN1CC2 [Example 7, (S)-2-hydroxymethyl-3,9,10-trimethoxy-6,8,13,13a-tetrahydro-5H-dibenzo[a,g] quinolizine] | 10 mg/kg |
| 140 nmol/L | 280 nmol/L |  | COc1cc2c(cc1N)[C@@H]1Cc3ccc(OC)c(OC)c3CN1CC2 [Example 13, (S)-2-amino-3,9,10-trimethoxy-6,8,13,13a-tetrahydro-5H-dibenzo [a,g] quinolizine hydrochloride] | 10 mg/kg |
| 270 nmol/L | 440 nmol/L |  | COc1cc2c(cc1N)[C@@H]1Cc3ccc(N)c(OC)c3CN1CC2 [Example 33, (S)-2,10-diamino-3,9-dimethoxy-6,8,13,13a-tetrahydro-5H-dibenzo [a,g] quinolizine] | 20 mg/kg |
|  |  | 5900 nmol/L | COc1ccc2c(c1OC)CN1CCc3cc(C#N)c(C#N)cc3C1C2 (stereo not shown) [Example 35, 2,3-dicyano-9,10-dimethoxy-6,8,13,13a-tetrahydro-5H-dibenzo[a,g] quinolizine] |  |
| 219 nmol/L |  |  | COc1ccc2c(c1OC)CN1CCc3ccc4oc(=O)[nH]c4c3C1C2 (stereo not shown) [Example 49, 10,11-Dimethoxy-6,7,14,14a-tetrahydro-1H-isoquinolino[3,2-a] oxazolo[5,4-h] isoquinoline-2 (9H)-one] | 10 mg/kg |
| 220 nmol/L | 450 nmol/L |  | C=CCOc1cc2c(cc1OC)CCN1Cc3c(ccc(OC)c3OC)C[C@@H]21 [Example 52, (S)-2-allyloxy-3,9,10-trimethoxy-6,8,13,13a-tetahydro-5H-dibenzo [a,g] quinolizine] | 20 mg/kg |

The remaining lines, values behind:

| SMILES | IC50 [2] | IC50 [3] | EC50 [4] | Effective Dose [1] |
| --- | --- | --- | --- | --- |
| COc1cc2c(cc1C)[C@@H]1Cc3ccc(OC)c(OC)c3CN1CC2 [Example 1, (S)-2-methyl-3,9,10-trimethoxy-6,8,13,13a-tetrahydro-5H-dibenzo[a,g] quinolizine] | 34.9 nmol/L | 620 nmol/L |  | 20 mg/kg |
| C=Cc1cc2c(cc1OC)CCN1Cc3c(ccc(OC)c3OC)C[C@@H]21 [Example 17, (S)-2-vinyl-3,9,10-trimethoxy-6,8,13,13a-tetrahydro-5H-dibenzo [a,g] quinolizine] | 240 nmol/L | 150 nmol/L |  | 20 mg/kg |
| COc1cc2c(cc1CCO)[C@@H]1Cc3ccc(OC)c(OC)c3CN1CC2 [Example 18, (S)-2-hydroxyethyl-3,9,10-trimethoxy-6,8,13,13a-tetrahydro-5H-dibenzo[a,g] quinolizine] | 390 nmol/L | 610 nmol/L |  | 20 mg/kg |
| COc1cc2c(cc1OC)[C@@H]1Cc3ccc(OC)c(C#N)c3CN1CC2 [Example 19, (S)-2,3,10-trimethoxy-9-cyano-6,8,13,13a-tetrahydro-5H-dibenzo [a,g] quinolizine] | 1300 nmol/L |  |  | 20 mg/kg |
| COc1cc2c(cc1OC)[C@@H]1Cc3ccc(OC)c(CNC(C)=O)c3CN1CC2 [Example 23, (S)-2,3,10-trimethoxy-9-acetylaminomethyl-6,8,13,13a-tetrahydro-5H-dibenzo[a,g] quinolizine] |  |  | 1900 nmol/L |  |
| COc1cc2c(cc1OC)[C@@H]1Cc3ccc(OC)c(CO)c3CN1CC2 [Example 25, (S)-2,3,10-trimethoxy-9-hydroxymethyl-6,8,13,13a-tetrahydro-5H-dibenzo[a,g] quinolizine] | 1700 nmol/L | 2300 nmol/L |  | 20 mg/kg |
| COc1cc2c(cc1NC(C)=O)[C@@H]1Cc3ccc(NC(C)=O)c(OC)c3CN1CC2 [Example 34, (S)-2,10-di(acetamino)-3,9-dimethoxy-6,8,13,13a-tetrahydro-5H-dibenzo[a,g] quinolizine] |  |  |  | 20 mg/kg |
| COc1ccc2c(c1OC)CN1CCc3cc4c(cc3C1C2)C(=O)NC4=O (stereo not shown) [Example 36, 9,10-dimethoxy-5,6,13,13a-tetrahydroisoquinolino[3,2-a]pyrrolo [3,4-g]isoquinoline-1,3(2H,8H)-dione] | 26.2 nmol/L | 427 nmol/L |  | 10 mg/kg |
| COc1ccc2c(c1OC)CN1CCc3cc(OC)c4[nH]c(=O)[nH]c4c3[C@@H]1C2 [Example 40, (S)-4,10,11-trimethoxy-3,6,7,9,14,14a-hexahydroimidazo[4,5-h] isoquinolino[3,2-a]isoquinoline-2(1H)-one] | 4 nmol/L | 27 nmol/L |  | 20 mg/kg |
| COc1ccc2c(c1OC)CN1CCc3cc(OC)c4[nH]c(=S)[nH]c4c3[C@@H]1C2 [Example 41, (S)-4,10,11-trimethoxy-3,6,7,9,14,14a-Hexahydroimidazo[4,5-h] isoquinolino [3,2-a]isoquinoline-2(1H)-thione] |  | 20 nmol/L |  | 3 mg/kg |
| COc1ccc2c(c1OC)CN1CCc3cc(OC)c4nc[nH]c4c3[C@@H]1C2 [Example 42, (S)-4,10,11-trimethoxy-1,6,7,9,14,14a-hexahydroimidazo[4,5-h] isoquinolino[3,2-a]isoquinoline] | 31.1 nmol/L | 291 nmol/L |  | 10 mg/kg |
| COc1ccc2c(c1OC)CN1CCc3cc4[nH]c(=O)oc4cc3C1C2 (stereo not shown) [Example 46, 9,10-Dimethoxy-3,5,6,8,13,13a-Hexahydro-2H-isoquinolino[3,2-a] oxazolo[4,5-g]isoquinolin-2-one] | 378 nmol/L | 184 nmol/L |  | 10 mg/kg |
| COc1ccc2c(c1OC)CN1CCc3cc4c(cc3C1C2)OCC(=O)N4 (stereo not shown) [Example 47, 10,11-Dimethoxy-4,6,7,9,14,14a-Hexahydroisoquinolino[3,2-a][1,4] oxazino[3,2-g]isoquinoline-3(2H)-one] | 19.9 nmol/L | 146 nmol/L |  | 10 mg/kg |
| COc1ccc2c(c1OC)CN1CCc3ccc4c(c3C1C2)NC(=O)CO4 (stereo not shown) [Example 50, 11,12-Dimethoxy-3,7,8,10,15,15a-hexahydroisoquinolino[3,2-a][1,4] oxazino [2,3-h]isoquinoline-2(1H)-one] | 855 nmol/L |  |  | 10 mg/kg |
| COc1cc2c(cc1OC1CC1)[C@@H]1Cc3ccc(OC)c(OC)c3CN1CC2 [Example 53, (S)-2-cyclopropoxy-3,9,10-trimethoxy-6,8,13,13a-tetrahydro-5H-dibenzo[a,g] quinolizine hydrochloride] | 960 nmol/L | 1300 nmol/L |  | 20 mg/kg |
